In PubChem BioAssay AID330 (DTP/NCI, 2004):
Several values for one entry are separate records, joined by “and”; a condition that tells them apart may be missing. Equal values may be shown once. Inconclusive results and toxic doses are left out.

Tested on: P388 leukemia ip, CD2F1 mice, survival T/C
Test: NCI In Vivo Anticancer Drug Screen. Data for tumor model P388 Leukemia (intraperitoneal) in CD2F1 (CDF1) mice
Details: endpoint: median survival time, higher = longer survival
Outline: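 Mice carrying the transplanted tumor received test compound or vehicle. Survival was recorded in each group, and the value is the treated-group measurement divided by that of the vehicle-treated control group.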

[1] = dose: 60.0 mg/kg/injection, schedule: Q01DX005 (ip), vehicle: saline with Tween-80
[2] = dose: 120.0 mg/kg/injection, schedule: Q01DX005 (ip), vehicle: saline with Tween-80
[3] = dose: 240.0 mg/kg/injection, schedule: Q01DX005 (ip), vehicle: saline with Tween-80
[4] = dose: 50.0 mg/kg/injection, schedule: Q04DX003 (ip), vehicle: saline
[5] = dose: 100.0 mg/kg/injection, schedule: Q04DX003 (ip), vehicle: saline
[6] = dose: 200.0 mg/kg/injection, schedule: Q04DX003 (ip), vehicle: saline
[7] = dose: 100.0 mg/kg/injection, schedule: Q01DX009 (ip), vehicle: saline with Tween-80
[8] = dose: 200.0 mg/kg/injection, schedule: Q01DX009 (ip), vehicle: saline with Tween-80
[9] = dose: 400.0 mg/kg/injection, schedule: Q01DX009 (ip), vehicle: saline with Tween-80
[10] = dose: 25.0 mg/kg/injection, schedule: Q01DX005 (ip), vehicle: Klucel (hydroxypropylcellulose) (HPC)
[11] = dose: 50.0 mg/kg/injection, schedule: Q01DX005 (ip), vehicle: saline with Tween-80
[12] = dose: 100.0 mg/kg/injection, schedule: Q01DX005 (ip), vehicle: saline with Tween-80
[13] = dose: 200.0 mg/kg/injection, schedule: Q01DX005 (ip), vehicle: saline with Tween-80
[14] = dose: 50.0 mg/kg/injection, schedule: Q01DX009 (ip), vehicle: saline
[15] = dose: 50.0 mg/kg/injection, schedule: Q01DX005 (ip), vehicle: Klucel (hydroxypropylcellulose) (HPC)
[16] = dose: 100.0 mg/kg/injection, schedule: Q01DX005 (ip), vehicle: Klucel (hydroxypropylcellulose) (HPC)
[17] = dose: 200.0 mg/kg/injection, schedule: Q01DX005 (ip), vehicle: Klucel (hydroxypropylcellulose) (HPC)
[18] = dose: 100.0 mg/kg/injection, schedule: Q01DX009 (ip), vehicle: saline

Structure (SMILES): CCCCN1C(=O)C(=O)N(c2ccccc2)C1=O
- T/C [1]: 102 % of control
- T/C [2]: 102 % of control
- T/C [3]: 94 % of control

Structure (SMILES): CC1C(=O)C(C)C(c2ccccc2)OC1c1ccccc1 (configuration not stated)
- T/C [4]: 97 % of control
- T/C [5]: 100 % of control
- T/C [6]: 107 % of control

Structure (SMILES): c1ccc(Cc2ccccn2)nc1
- T/C [7]: 104 % of control
- T/C [8]: 104 % of control
- T/C [9]: 95 % of control

Structure (SMILES): CCc1nc(N)nc(N)c1-c1ccc(NC2CCCCC2)c([N+](=O)[O-])c1
- T/C [1]: 101 % of control
- T/C [2]: 95 % of control
- T/C [3]: 94 % of control

Structure (SMILES): CCc1nc(N)nc(N)c1-c1ccc([N+](C)(C)C)cc1
- T/C (dose: 6.25 mg/kg/injection, schedule: Q01DX005 (ip), vehicle: Klucel (hydroxypropylcellulose) (HPC)): 101 % of control
- T/C (dose: 12.5 mg/kg/injection, schedule: Q01DX005 (ip), vehicle: Klucel (hydroxypropylcellulose) (HPC)): 101 % of control
- T/C [10]: 103 % of control

Structure (SMILES): O=C(/C=C\c1ccc([N+](=O)[O-])cc1)c1ccccc(=O)c1O
- T/C (dose: 12.5 mg/kg/injection, schedule: Q01DX001 (ip), vehicle: Klucel (hydroxypropylcellulose) (HPC)): 95 % of control
- T/C (dose: 25.0 mg/kg/injection, schedule: Q01DX001 (ip), vehicle: Klucel (hydroxypropylcellulose) (HPC)): 100 % of control
- T/C (dose: 50.0 mg/kg/injection, schedule: Q01DX001 (ip), vehicle: Klucel (hydroxypropylcellulose) (HPC)): 99 % of control
- T/C (dose: 100.0 mg/kg/injection, schedule: Q01DX001 (ip), vehicle: Klucel (hydroxypropylcellulose) (HPC)): 98 % of control

Structure (SMILES): CCO/C=C1\SC(=S)N(c2ccc(C(=O)O)cc2)C1=O
- T/C (dose: 4.4 mg/kg/injection, schedule: Q01DX009 (ip), vehicle: saline with Tween-80): 104 % of control
- T/C (dose: 6.6 mg/kg/injection, schedule: Q01DX009 (ip), vehicle: saline with Tween-80): 109 % of control
- T/C (dose: 10.0 mg/kg/injection, schedule: Q01DX009 (ip), vehicle: saline with Tween-80): 109 % of control
- T/C (dose: 15.0 mg/kg/injection, schedule: Q01DX009 (ip), vehicle: saline with Tween-80): 109 % of control
- T/C (dose: 100.0 mg/kg/injection, schedule: Q04DX003 (ip), vehicle: saline with Tween-80): 118 % of control
- T/C (dose: 200.0 mg/kg/injection, schedule: Q04DX003 (ip), vehicle: saline with Tween-80): 113 % of control

Structure (SMILES): Nc1ccc(/C=C/c2ccc3cccnc3c2)cc1
- T/C (dose: 12.5 mg/kg/injection, schedule: Q01DX009 (ip), vehicle: DMSO): 108 % of control
- T/C (dose: 25.0 mg/kg/injection, schedule: Q01DX009 (ip), vehicle: DMSO): 97 % of control
- T/C (dose: 50.0 mg/kg/injection, schedule: Q01DX009 (ip), vehicle: DMSO): 101 % of control

Structure (SMILES): CCOC(=O)[C@H]1CC[C@@H](C(=O)OCC)N1Sc1ccc([N+](=O)[O-])cc1[N+](=O)[O-]
- T/C [11]: 102 % of control
- T/C [12]: 102 % of control
- T/C [13]: 102 % of control

Structure (SMILES): O=C(Nc1ccc(Cl)cc1)Nc1nnc(-c2cc([N+](=O)[O-])cc([N+](=O)[O-])c2)o1
- T/C [1]: 98 % of control
- T/C [2]: 92 % of control
- T/C [3]: 86 % of control

Structure (SMILES): O=C(O)C1C[n+]2ccccc2O1 (configuration not stated)
- T/C (dose: 12.5 mg/kg/injection, schedule: Q01DX009 (ip), vehicle: saline): 100 % of control
- T/C (dose: 12.5 mg/kg/injection, schedule: Q04DX003 (ip), vehicle: saline): 91 % of control
- T/C (dose: 25.0 mg/kg/injection, schedule: Q01DX009 (ip), vehicle: saline): 100 % of control
- T/C (dose: 25.0 mg/kg/injection, schedule: Q04DX003 (ip), vehicle: saline): 100 % of control
- T/C [14]: 109 % of control
- T/C [4]: 95 % of control

Structure (SMILES): OC1CN(Cc2ccccc2)C[C@@H]1O (some centres not stated)
- T/C (dose: 60.0 mg/kg/injection, schedule: Q01DX005 (ip), vehicle: saline): 100 % of control
- T/C (dose: 120.0 mg/kg/injection, schedule: Q01DX005 (ip), vehicle: saline): 96 % of control

Structure (SMILES): COc1ccc(N/C=C2\C(=O)CCc3c2oc2cc(Cl)c(O)c(Cl)c32)cc1
- T/C (dose: 15.0 mg/kg/injection, schedule: Q01DX005 (ip), vehicle: Klucel (hydroxypropylcellulose) (HPC)): 93 % of control
- T/C (dose: 30.0 mg/kg/injection, schedule: Q01DX005 (ip), vehicle: Klucel (hydroxypropylcellulose) (HPC)): 99 % of control
- T/C (dose: 60.0 mg/kg/injection, schedule: Q01DX005 (ip), vehicle: Klucel (hydroxypropylcellulose) (HPC)): 107 % of control and 93 % of control
- T/C (dose: 120.0 mg/kg/injection, schedule: Q01DX005 (ip), vehicle: Klucel (hydroxypropylcellulose) (HPC)): 102 % of control

Structure (SMILES): Cn1nnnc1-c1ccc(C(=O)O)cc1
- T/C [10]: 102 % of control
- T/C [15]: 102 % of control and 91 % of control
- T/C [16]: 96 % of control
- T/C [17]: 93 % of control

Structure (SMILES): Nc1csc(Nc2c3ccccc3nc3ccccc23)n1
- T/C (dose: 12.5 mg/kg/injection, schedule: Q04DX002 (ip), vehicle: distilled water + Tween-80): 98 % of control
- T/C (dose: 25.0 mg/kg/injection, schedule: Q04DX002 (ip), vehicle: distilled water + Tween-80): 97 % of control

Structure (SMILES): C=C(C)C1Cc2c(ccc3c2OC2COc4cc(OC)c(OC)cc4C2C3=O)O1 (configuration not stated)
- T/C [7]: 86 % of control
- T/C [8]: 95 % of control
- T/C [9]: 95 % of control

Structure (SMILES): O=C(c1ccccc1)C(c1ccccc1)C(Cl)c1ccccc1 (configuration not stated)
- T/C (dose: 50.0 mg/kg/injection, schedule: Q01DX009 (ip), vehicle: Klucel (hydroxypropylcellulose) (HPC)): 100 % of control
- T/C (dose: 100.0 mg/kg/injection, schedule: Q01DX009 (ip), vehicle: Klucel (hydroxypropylcellulose) (HPC)): 97 % of control
- T/C (dose: 100.0 mg/kg/injection, schedule: Q04DX003 (ip), vehicle: Klucel (hydroxypropylcellulose) (HPC)): 98 % of control
- T/C (dose: 200.0 mg/kg/injection, schedule: Q01DX009 (ip), vehicle: Klucel (hydroxypropylcellulose) (HPC)): 99 % of control
- T/C (dose: 200.0 mg/kg/injection, schedule: Q04DX003 (ip), vehicle: Klucel (hydroxypropylcellulose) (HPC)): 100 % of control
- T/C (dose: 400.0 mg/kg/injection, schedule: Q04DX003 (ip), vehicle: Klucel (hydroxypropylcellulose) (HPC)): 100 % of control

Structure (SMILES): CC1(COCCOCC2(C)CO2)CO1 (configuration not stated)
- T/C [18]: 118 % of control
- T/C [5]: 100 % of control
- T/C [6]: 113 % of control
- T/C (dose: 400.0 mg/kg/injection, schedule: Q01DX009 (ip), vehicle: saline sonified): 177 % of control
- T/C (dose: 400.0 mg/kg/injection, schedule: Q01DX009 (ip), vehicle: saline): 172 % of control
- T/C (dose: 400.0 mg/kg/injection, schedule: Q04DX003 (ip), vehicle: saline): 109 % of control
- T/C (dose: 600.0 mg/kg/injection, schedule: Q01DX009 (ip), vehicle: saline sonified): 200 % of control

Structure (SMILES): Nc1ncc2[nH]cnc2n1
- T/C [15]: 102 % of control
- T/C [16]: 100 % of control
- T/C [17]: 103 % of control

Structure (SMILES): [CH3][Sb]([CH3])([CH3])([CH3])[I]
- T/C [14]: 98 % of control
- T/C [18]: 100 % of control
- T/C (dose: 200.0 mg/kg/injection, schedule: Q01DX009 (ip), vehicle: saline): 95 % of control

Structure (SMILES): S=C(S)n1nc(-c2ccccc2)c(N=Nc2cccc(Cl)c2)c1-c1ccccc1
- T/C (dose: 100.0 mg/kg/injection, schedule: Q01DX001 (ip), vehicle: saline with Tween-80): 91 % of control
- T/C (dose: 200.0 mg/kg/injection, schedule: Q01DX001 (ip), vehicle: saline with Tween-80): 91 % of control
- T/C (dose: 400.0 mg/kg/injection, schedule: Q01DX001 (ip), vehicle: saline with Tween-80): 113 % of control

Structure (SMILES): C[C@@H]1CC2=CC(=O)CC[C@]2(C)[C@H]2CC[C@]3(C)[C@@H](O)CC[C@H]3[C@H]12
- T/C [7]: 90 % of control
- T/C [8]: 90 % of control

Structure (SMILES): COc1cc2c(cc1OC)OC(C)(C)C=C2
- T/C (dose: 6.87 mg/kg/injection, schedule: Q01DX009 (ip), vehicle: saline with Tween-80): 106 % of control
- T/C (dose: 13.75 mg/kg/injection, schedule: Q01DX009 (ip), vehicle: saline with Tween-80): 98 % of control
- T/C (dose: 27.5 mg/kg/injection, schedule: Q01DX009 (ip), vehicle: saline with Tween-80): 108 % of control
- T/C (dose: 55.0 mg/kg/injection, schedule: Q01DX009 (ip), vehicle: saline with Tween-80): 102 % of control

Structure (SMILES): C/C([O-])=c1\c(C)nn2ccc[n+]12
- T/C (dose: 25.0 mg/kg/injection, schedule: Q01DX005 (ip), vehicle: saline with Tween-80): 100 % of control
- T/C [11]: 108 % of control
- T/C [12]: 96 % of control
- T/C [13]: 99 % of control
